The values that follow come from US10792483B2, “Tumor vaccination” (XAX KFT., priority 2012, dated 2020).

“Also recorded” adds a separate entry of the source.

The test system of data set [1] is non small cells lung cancer. Nature of the data set: Case report, patient treated with radiotherapy, oncothermia and GM-CSF (Example 13). In kind it is in vivo, human. Particulars: for Response of far-distant metastases (abscopal effect, PET scan): GM-CSF (Leukine) subcutaneously with oncothermia (and radiotherapy) of the primary tumor only; for Response of the primary (treated) tumor: GM-CSF (Leukine) with oncothermia (and radiotherapy). From the text:
A patient was diagnosed with unclassifiable non small cells lung cancer. The classification of the tumor at first diagnosis was cT2N2M0, stage IIIB. Despite of the advanced case the patient refused any treatment. Five months later, they visited outpatient department of complementary and alternative medicine with complaints of hemoptysis and dyspnea on exertion gradually worsened 4 weeks before. They were referred to medical oncology department and admitted for re-evaluation.
The patient had no co-morbidities and no medical history. However, they still refused chemotherapy and together with their family members requested other possible treatment options.
In these circumstances we made radiotherapy in combination with oncothermia and GM-CSF expecting to induce abscopal effect. Local field radiation therapy to lung mass was delivered at a dose of […] in 28 daily fractions for 5-6 treatments in a week. It was followed by oncothermia after radiation 3 times a week. After 2 weeks of oncothermia treatment, GM-CSF (250 microgram, Leukine®, USA) was administered subcutaneously once a day for 10 days. GM-CSF in dose 125 μg/m^2 was given subcutaneously for 14 days after one week of radiotherapy. The result supported that using GM-CSF was feasible and its effect enhanced the immune therapy.

The test system of data set [2] is melanoma with lung metastases. Nature of the data set: Case report, dog treated with oncothermia and low dose Carboplatine (Example 11). The class given is in vivo, Cocker spaniel. Particulars: low dose Carboplatine 2 times (100 mg/m^2) + oncothermia 10 times in 2 weeks on the chest. The procedure: Case No.:11461, Cocker spaniel, 8 years, castrated male,
Diagnosis: melanoma with lung metastases. The primary tumor was situated on the right hind leg and was removed surgically. 5 months later metastases in the lung occurred, at that time we started the treatment.
Oncothermia (10 times in a 2 weeks period)
Low dose Carboplatine 2 times, (100 mg/m^2)
The site of the OTM treatment was on the chest, exactly at the line of the heart.

In a further data set the test system is Melanoma. Particulars: phase III, 185 patients; cited from earlier work.

As for “Leukine®: sargramostim; recombinant granulocyte macrophage colony-stimulating factor”, in data set [1], the “Response of far-distant metastases (abscopal effect, PET scan)” value was “beneficial effect also on the far-distances metastases, which disappear; also recorded: the metastases disappeared” and the “Response of the primary (treated) tumor” value was “started to shrink”. Also, in data set [1] (listed as GM-CSF), the “Response of far-distant metastases (abscopal effect, PET scan)” value is given as “nearly complete remission in multiple metastatic lymph nodes; also recorded: successful abscopal effect” and the “Response of the primary (treated) tumor” value is “shrinking”. For the same compound, the Adverse effects result in data set [1] (radiotherapy + oncothermia + GM-CSF, end of treatment period) is “no severe adverse effects except grade 1 fatigue”.

Turning to `N.N.O=C([O-])C1(C(=O)[O-])CCC1.[Pt+2]` [Carboplatine], the “Tumor regression (CT image series)” value in data set [2] is recorded as “Significant tumor regression was observed not only at the site of the treatment, but outside of the directly OTM treated area”.

“gp100:209-217(210M): listed under vaccines with peptides (IMDQVPFSV; UniProt P40967 209-217, looked up, variant T210M)”: the “RR and PES” value in the data set with Melanoma is given as “Significant improve-”.
